Data from patent publication US10588316B2 (priority 2015, dated 2020).

What was measured:
Fusarium graminearum = assay: microbe, parasite or virus in culture; type: cell-based; conditions: F.g sensitive strains
Fusarium asiaticum = assay: microbe, parasite or virus in culture; type: cell-based; conditions: F.a sensitive strains

## CCOC(=O)C(C#N)=C(N)c1ccccc1 [phenamacril]
Fusarium graminearum
  Median Effective Concentration (EC50) for Growth Inhibition: 0.165 µg/mL
Fusarium asiaticum
  Median Effective Concentration (EC50) for Growth Inhibition: 0.165 µg/mL
